Earlier results as cited in US20170042143A1, “ANIONIC POLYVINYL ALCOHOL COPOLYMER AS PROTECTIVE COLLOID FOR PESTICIDAL POLYUREA MICROCAPSULES” (BASF SE, priority 2014, published 2017).

Conditions: at 20° C.

Cc1ccccc1CO[C@@H]1C[C@@]2(C(C)C)CC[C@]1(C)O2 (racemic) [Cinmethylin]
solubility in water: about 0.06 g/l
